Assays:
[1] = target: T1, MKK3 (Homo sapiens, UniProt P46734); experiment: MKK3 kinase activity (data not shown); format: biochemical; conditions: concentration that inhibits >95% of MK2
T1 sequence (P46734 1-347): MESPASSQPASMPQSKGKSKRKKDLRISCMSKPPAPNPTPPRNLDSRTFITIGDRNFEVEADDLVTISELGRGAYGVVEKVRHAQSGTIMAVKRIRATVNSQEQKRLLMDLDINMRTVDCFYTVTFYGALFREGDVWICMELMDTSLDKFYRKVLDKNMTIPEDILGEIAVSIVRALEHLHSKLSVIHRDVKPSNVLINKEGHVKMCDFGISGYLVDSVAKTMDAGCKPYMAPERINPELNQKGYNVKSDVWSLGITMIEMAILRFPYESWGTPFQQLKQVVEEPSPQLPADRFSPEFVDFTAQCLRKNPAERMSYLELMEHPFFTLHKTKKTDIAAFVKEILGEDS
Description: A commercial radiometric assay service was used to test the specificity and potency of MMI-0100 ([…]; SEQ ID NO: 1) by measuring its half maximal inhibitory concentrations (IC50). This quantitative assay measures how much MK2 inhibitor (MMI-0100; […] (SEQ ID NO: 1)) is needed to inhibit 50% of a given biological process or component of a process (i.e., an enzyme, cell, or cell receptor). Specifically, in these assays, a positively charged substrate is phosphorylated with a radiolabeled phosphate group from an ATP if the kinase is not inhibited by an inhibitor peptide. The positively charged substrate then is attracted to a negatively charged filter membrane, quantified with a scintillation counter, and compared to a 100% activity control. ATP concentrations within 15 μM of the apparent Km for ATP were chosen since an ATP concentration near the Km may allow for the kinases to have the same relative amount of phosphorylation activity. The individual conditions for each radiometric assay are as follows.
IC50 values for inhibitor peptides were determined using Millipore's IC50 Profiler Express service. The IC50 value was estimated from a 10-point curve of one-half log dilutions. […]

[2] = test system: human coronary artery endothelial cells (HCAEC); experiment: TNF-α-induced IL-6 and IL-8 expression in HCAEC (ELISA); format: cell-based; conditions: 0.5 mM MMI-0100, 24 hours after 6 hour TNF-α
Protocol: Primary human coronary artery endothelial cells (HCAEC) were cultured and seeded onto a 96-well plate, using methods described in the MTS proliferation assay above. Cells were again stimulated with 20 ng/ml of TNF-α for 6 hours and then treated with MMI-0100 (SEQ ID NO: 1) for approximately 24 hours. Supernatants were then collected and analyzed for drug effect on inflammatory cytokines.
IL-6 (Cat #: 900-K16; Lot #: 0909016) and IL-8 (Cat #: 900-K18; Lot #: 0209018) ELISA kits (Peprotech; Rocky Hill, N.J.) were used to measure levels of these cytokines from HCAEC supernatants following treatment with MMI-0100 ([…]; SEQ ID NO: 1). The Human IL-6 ELISA development kit contains the key components required for the quantitative measurement of natural and/or recombinant hIL-6 in a sandwich ELISA format within the range of 32-2000 pg/ml. Human IL-8 ELISA development kit contains the key components required for the quantitative measurement of natural and/or recombinant hIL-8 in a sandwich ELISA format within the range of 16-1000 pg/ml.
Briefly, 10 μl of supernatant was diluted with 90 μl of diluents; 3 replicates of each sample were used. Data were collected at 405 nm with correction at 650 nm on a plate reader. Each plate was monitored for 1 hour with readings taken every 5 minutes. Concentrations of IL-6 and IL-8 in test samples were determined by extrapolating from a standard curve. […]

YARAAARQARAKALARQLGVAA [MMI-0100] was tested, and the “reduction in MKK3 activity” value [1] was “no reduction”, the “TNF-α-induced IL-6 expression” value [2] was “reduced the level of TNF-α-induced IL-6 expression to that of the untreated control” and the “TNF-α-induced IL-8 expression” value [2] was “no effect”.

Reference: patent publication US20130115256A1, “METHODS FOR TREATING OR PREVENTING VASCULAR GRAFT FAILURE” (priority 2010, published 2013)
